Reference: the supplement of paper PMC10307832

Assays:
Experiment in all cases: relative viability (nuclei count vs DMSO), 5 days (fraction); higher = more cells survive
[1] = compound: Cc1ccc2nc(NCCN)c3ncc(C)n3c2c1 + Nc1ncn([C@H]2C[C@H](O)[C@@H](CO)O2)c(=O)n1 [Decitabine] (partner 2 µM)
Method in brief: (§1)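 After 5 days of treatment, lung cancer cells in 1536-well plates were fixed and stained in a single step (final 0.05% Triton X-100, 1% formaldehyde, 1 ug/ml Hoechst) and their nuclei counted on 4× images. Treatment had been applied by pin tool the day after seeding as one drug alone or as a fixed anchor-drug dose with five library-drug doses (not always all listed) in √10 steps. Relative viability is the nuclei count of treated wells divided by that of vehicle wells, and values are medians of duplicate plates.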

[2] = compound: O=C(/C=C/c1ccccc1)NC(NC(=S)Nc1cccc2cccnc12)C(Cl)(Cl)Cl [Salubrinal] + C[C@]1(O)C[C@@H](c2nc(-c3ccc4ccc(-c5ccccc5)nc4c3)c3c(N)nccn32)C1 [Linsitinib] (partner 1 µM)
Method in brief: as §1

[3] = compound: O=C(/C=C/c1ccccc1)NC(NC(=S)Nc1cccc2cccnc12)C(Cl)(Cl)Cl [Salubrinal] + O=C(CCCCCCC(=O)Nc1ccccc1)NO [Vorinostat] (partner 1 µM)
Method in brief: as §1

[4] = compound: O=C(/C=C/c1ccccc1)NC(NC(=S)Nc1cccc2cccnc12)C(Cl)(Cl)Cl [Salubrinal] + O=C(c1cc(Cc2n[nH]c(=O)c3ccccc23)ccc1F)N1CCN(C(=O)C2CC2)CC1 [Olaparib] (partner 8 µM)
Method in brief: as §1

UMC-11 gave a relative viability ([1]; first compound 0.04 µM) of 0.606, a relative viability ([1]; first compound 0.1265 µM) of 0.432 and a relative viability ([1]; first compound 0.4 µM) of 0.59. For the same cell line, the relative viability ([1]; first compound 1.265 µM) was 0.679, the relative viability ([1]; first compound 4 µM) was 0.624 and the relative viability ([2]; first compound 0.08 µM) was 1.25. It also gave a relative viability ([2]; first compound 0.253 µM) of 0.807, a relative viability ([2]; first compound 0.8 µM) of 1.21 and a relative viability ([2]; first compound 2.53 µM) of 0.998. It also gave a relative viability ([2]; first compound 8 µM) of 0.955, a relative viability ([3]; first compound 0.08 µM) of 0.349 and a relative viability ([3]; first compound 0.253 µM) of 0.404. It also gave a relative viability ([3]; first compound 0.8 µM) of 0.38, a relative viability ([3]; first compound 2.53 µM) of 0.334 and a relative viability ([3]; first compound 8 µM) of 0.398. It also gave a relative viability ([4]; first compound 0.08 µM) of 0.355, a relative viability ([4]; first compound 0.253 µM) of 0.368 and a relative viability ([4]; first compound 0.8 µM) of 0.386. The relative viability ([4]; first compound 2.53 µM) was 0.337 and the relative viability ([4]; first compound 8 µM) was 0.393.
